A short description of the data set: Example 18: safety and tolerability in slow and fast acetylators. The class given is in vivo, human. From the text: The primary objective of the study was to assess the safety and tolerability of 3,4-DAP phosphate after single and multiple doses. The secondary objectives of the study were • Part 1 only: To determine the dose-related PK profile of amifampridine and of 3-N-acetyl amifampridine after single, escalating doses of 3,4-DAP phosphate • Part 2 only: To assess the steady-state plasma PK and accumulation of amifampridine and of 3-N-acetyl amifampridine over multiple days of dosing with 3,4-DAP phosphate An exploratory objective was to examine the overall activity of the N-acetyl transferase enzymes on the metabolism of amifampridine by assessing the PK of amifampridine and 3-N-acetyl amifampridine with phenotypic acetylation activity and genotyping determination of NAT2 gene polymorphisms. Study Design and Plan
Part 1 was a dose-proportionality study in 12 healthy subjects each receiving 4 ascending single oral doses of 3,4-DAP phosphate in a sequential manner (5 mg, 10 mg, 20 mg, and 30 mg). For all 12 subjects, the first 3 doses of oral 3,4-DAP phosphate (5-20 mg) were administered on 3 consecutive days (Days 1-3). Two fast and two slow acetylators (as defined by a caffeine challenge test in Example 15a) were selected as the first 4 enrolled subjects (sentinel subjects). For the 2 fast acetylators the 30 mg dose was administered on Day 4. […] Safety and tolerability data collected for all 4 subjects were reviewed and the safety and tolerability results of the 30 mg dose for these 4 sentinel subjects were acceptable. The 30 mg dose was given to the remaining 8 non-sentinel subjects on Day 7. Sentinel and non-sentinel subjects were released from the clinic on Day 5, Day 6, and Day 8 respectively, with all subjects returning for follow-tip assessments 2-4 days following their last dose.
Part 2, Group 1: Four sentinel subjects were selected after determining their acetylator status. Two were fast acetylators and two were slow acetylators. All four were dosed on Day 1 with 4 oral doses of 20 mg of 34-DAP phosphate (given at 4-hour dosing intervals). On Days […] and 2, safety and tolerability data was collected. Subjects left the clinic on Day 2. The safety and tolerability data collected for these 4 sentinel subjects were reviewed. The safety and tolerability results of Days 1 and 2 for these subjects were acceptable and thus Part 2 Group 2 was commenced. Minimally acceptable safety was defined as the absence of clinical seizure activity. Subjects in Group 1 returned to the clinic for their follow-up assessments 2-4 days following their last dose.
Each subject was given a final morning dose of 20 mg 3,4-DAP phosphate on Day 4. Subjects in Group 2 returned to the clinic for their follow-up assessments 2-4 days following their last dose.
Safety assessments: During the assessment period, the following safety measures were evaluated: vital signs, adverse events (AEs), 12-lead ECG, EEG and clinical laboratory tests.
Safety: Safety was assessed by the incidence of AEs, as well as changes in vital signs, 12-lead ECG, EEG, and clinical laboratory evaluations.
Safety: All subjects who received any amount of study drug in either Part 1 or Part 2 of this study and had post-dose safety information were included in the safety analyses. Safety was evaluated separately for Part 1 and Part 2 and was summarized by dose levels where appropriate. All verbatim AE terms were coded using Medical Dictionary for Regulatory Activities (MedDRA) terminology. Only treatment-emergent AEs (i.e., AEs with a start date on or after the first dose of study drug) were summarized. The incidence of AEs and SAEs were summarized for each study part by dose level, system, organ, class, preferred term, relationship to study drug, and severity. No deaths during the study, no discontinuations of study drug, and no withdrawals from the study and study drug due to an AE were observed.

Consider `Nc1ccncc1N.O=P(O)(O)O` [amifampridine phosphate, 3,4-diaminopyridine phosphate], for which, for the setting “Part 1, 30 mg dose, sentinel subjects”, the seizures result is given as “No seizures were seen”. Besides, the “phenotype in which drug-related adverse events were observed” value (Part 1, single doses 5-30 mg) was “observed in slow acetylators only”. For the same compound, for the setting “Part 2, fast acetylators (7)”, the “drug-related adverse events: % of subjects” value amounted to 43%, the “drug-related adverse events: events” value is “six” and the “drug-related adverse events: subjects” value came out at 3. In addition, where the note is “Part 2, slow acetylators (7)”, the “drug-related adverse events: % of subjects” value was found to be 86%, the “drug-related adverse events: events” value is listed as “Forty-five” and the “drug-related adverse events: subjects” value is on record as 6. Under “Part 2 Group 1, 20 mg x 4 on Day 1”, the seizures result is “No seizures occurred”. Moreover, for the setting “Parts 1 and 2”, the serious adverse events result was “no serious adverse events”; the “severity of treatment-emergent adverse events” value was “mild and transient”.

For the origin of these results see US11274332B2, “Methods of administering 3,4-diaminopyridine” (SERB SA, priority 2011, dated 2022).
